These results are taken from US12318364B2, “Isoflavonoid compositions and methods for the treatment of cancer” (Aardvark Therapeutics, Inc., priority 2010, dated 2025).

Converted amounts (≈) assume the structure as drawn.

This data set in a line: Solubility limit of compound d-4 in aqueous Captisol (SBE7-β-CD) solution. The settings on record: at 25° C., 20% Captisol® in water. Format: physicochemical.

Compound `Oc1ccc([C@H]2c3ccc(O)cc3OC[C@H]2c2ccc(O)cc2)cc1` (relative stereo) [Compound d-4, d-cis-3-(4-hydroxyphenyl)-4-(4-hydroxyphenyl)chroman-7-ol] yielded a solubility limit of 27.9 mg/mL (≈ 83.4 mM).
